Laboratory results taken from patent publication US11136295B2, “D-amphetamine compounds, compositions, and processes for making and using the same” (KemPharm, Inc., priority 2018, dated 2021).

Key:
[1] = Oral pharmacokinetic study in rats (plasma amphetamine by LC-MS/MS); assay type: in vivo; conditions: d-amphetamine in plasma; rat, oral gavage, 5.6 μmol/kg; 6-hour time course
Method: Conjugates of d-amphetamine, and d-amphetamine sulfate or lisdexamfetamine dimesylate comparator compound were dissolved in an appropriate vehicle and administered in rats via oral gavage at doses of 5.6 μmol/kg. Whole blood samples were collected via retro-orbital bleeding at 0.25, 0.5, 1, 2, 4, and optionally at 3 and 6 hours postdose. Blood samples were centrifuged and the resulting plasma samples were collected for analysis of amphetamine concentrations by LC-MS/MS.

[2] = Intravenous pharmacokinetic study in rats (tail vein; plasma d-amphetamine by LC-MS/MS); assay type: in vivo, rat; conditions: for AUC0-2 hr / Cmax / Tmax: d-amphetamine in plasma, rat, intravenous (tail vein), 5.6 μmol/kg, sampled to 2 hours
Method: Conjugates of d-amphetamine, and d-amphetamine sulfate or lisdexamfetamine dimesylate comparator compound were dissolved in an appropriate vehicle and administered in rats at doses of 5.6 μmol/kg by injecting the solution into the tail vein. Whole blood samples were collected via retro-orbital bleeding at 5 minutes and at 0.25, 0.5, 1 and 2 hours postdose. Blood samples were centrifuged and the resulting plasma samples were collected for analysis of […] concentrations by LC-MS/MS.

[3] = Intranasal pharmacokinetic study in rats (plasma amphetamine by LC-MS/MS); assay type: in vivo; conditions: d-amphetamine in plasma, rat, 4-hour time course

## d-amphetamine-CO2CH2-isonicotinate ethyl ester [AMP-CO2CH2-isonicotinate(Et)]
[1]
  AUC0-4 hr: 75.4 ng·h/mL
  AUC0-6 hr: 106.6 ng·h/mL
  Cmax: 26.0 ng/mL
  Tmax: 90 min
[2]
  AUC0-2 hr: 26.5 ng·h/mL
  Cmax: 18.8 ng/mL
  Tmax: 43.2 min
[3]
  AUC0-1 hr: 8.6 ng·h/mL
  AUC0-4 hr: 32.6 ng·h/mL
  Cmax: 11.1 ng/mL
  Tmax: 37.8 min

## CCOC(=O)C(C)NC(=O)c1cc[n+](COC(=O)N[C@@H](C)Cc2ccccc2)cc1 (stereo partly drawn) [AMP-CO2CH2-isonicotinoyl-Ala-OEt, d-amphetamine-CO2CH2-isonicotinoyl-alanine ethyl ester]
[1]
  AUC0-4 hr: 72.8 ng·h/mL
  AUC0-6 hr: 105.7 ng·h/mL
  Cmax: 28.5 ng/mL
  Tmax: 120 min
[2]
  AUC0-2 hr: 32.4 ng·h/mL
  Cmax: 24.7 ng/mL
  Tmax: 31.2 min

## CC(C)[C@H](NC(=O)c1cc[n+](COC(=O)N[C@@H](C)Cc2ccccc2)cc1)C(N)=O [AMP-CO2CH2-isonicotinoyl-Val-NH2, d-amphetamine-CO2CH2-isonicotinoyl-valinamide]
[2]; intravenous, compared to AMP-CO2CH2-nicotinoyl-Val-NH2, FIG. 32
  exposure to d-amphetamine after intravenous administration compared to the nicotinoyl analogue: decreases exposure to d-amphetamine

## C[C@@H](Cc1ccccc1)NC(=O)OC[n+]1ccc(C(=O)O)cc1 [AMP-CO2CH2-isonicotinate, d-amphetamine-CO2CH2-isonicotinate]
other
  melting point: 168 to 170 °C
